Experimental data published in ChEMBL document CHEMBL1201862, “PubChem BioAssay data set” (2004).
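These data come from cells grown in 96-well plates and exposed to compound for 48 hours at five concentrations. GI50 marks 50% less growth.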 Active and inactive are the calls of the source. Cut-off read from the data, not from the text of the source: active = GI50 up to about 1.1 µM and inactive = higher.

How the values were obtained:
Experiment in all cases: NCI tumour cell line growth inhibition, 48 h
HCT-15 = tested on: HCT-15
CAKI-1 = tested on: CAKI-1
SR = tested on: SR
RXF 393 = tested on: RXF 393
K562 = tested on: K562
ACHN = tested on: ACHN
NCI-H226 = tested on: NCI-H226
SNB-19 = tested on: SNB-19
OVCAR-3 = tested on: OVCAR-3
EKVX = tested on: EKVX
OVCAR-5 = tested on: OVCAR-5
SF-539 = tested on: SF-539
NCI-H460 = tested on: NCI-H460
RPMI-8226 = tested on: RPMI-8226
U-251 = tested on: U-251
CCRF-CEM = tested on: CCRF-CEM
M14 = tested on: M14
HOP-92 = tested on: HOP-92
UO-31 = tested on: UO-31
SF-268 = tested on: SF-268

| SMILES | GI50 (HCT-15) [µM] | GI50 (CAKI-1) | GI50 (SR) | GI50 (RXF 393) | GI50 (K562) | GI50 (ACHN) | GI50 (NCI-H226) | GI50 (SNB-19) | GI50 (OVCAR-3) | GI50 (EKVX) | GI50 (OVCAR-5) | GI50 (SF-539) | GI50 (NCI-H460) | GI50 (RPMI-8226) | GI50 (U-251) | GI50 (CCRF-CEM) | GI50 (M14) | GI50 (HOP-92) | GI50 (UO-31) | GI50 (SF-268) |
| --- | --- | --- | --- | --- | --- | --- | --- | --- | --- | --- | --- | --- | --- | --- | --- | --- | --- | --- | --- | --- |
| COc1ccc(C(=C2C=CC=C2)c2ccc(OC)cc2)cc1 | 25.5 | 23 µM (inactive) | 25.9 µM (inactive) | 25.2 µM (inactive) | 22.2 µM (inactive) | 36.7 µM (inactive) | 50.5 µM (inactive) | 28 µM (inactive) | 47.1 µM (inactive) | 41 µM (inactive) | 32.3 µM (inactive) | 10.8 µM (inactive) | 32 µM (inactive) | 0.783 µM (active) | 27.7 µM (inactive) | 21.9 µM (inactive) | 61.1 µM (inactive) | 27.8 µM (inactive) | 28.5 µM (inactive) | 55.7 µM (inactive) |
| COC(=O)C1=C(C)N2CCSC2(C)C(C(=O)OC)C1c1cccc(Cl)c1 (stereo not drawn) | – | 14 µM (inactive) | 15.5 µM (inactive) | 21.9 µM (inactive) | 17.5 µM (inactive) | 24.8 µM (inactive) | 19.2 µM (inactive) | 16.6 µM (inactive) | 15.6 µM (inactive) | 12.6 µM (inactive) | – | 11.5 µM (inactive) | 18.8 µM (inactive) | 10.3 µM (inactive) | – | 23.1 µM (inactive) | 30.1 µM (inactive) | 13.4 µM (inactive) | 13.2 µM (inactive) | 18.7 µM (inactive) |
| Oc1cc2cc(O)nc(O)c2c(O)n1 | > 100 | > 100 µM (inactive) | > 100 µM (inactive) | > 100 µM (inactive) | > 100 µM (inactive) | – | > 100 µM (inactive) | > 100 µM (inactive) | > 100 µM (inactive) | – | > 100 µM (inactive) | > 100 µM (inactive) | > 100 µM (inactive) | > 100 µM (inactive) | > 100 µM (inactive) | > 100 µM (inactive) | > 100 µM (inactive) | > 100 µM (inactive) | > 100 µM (inactive) | > 100 µM (inactive) |
| CC1CC2C3CCC4=CC(=O)C=CC4(C)C3(F)C(O)CC2(C)C1(O)C(=O)COP(=O)(O)O (stereo not drawn) | > 100 | > 100 µM (inactive) | 46.6 µM (inactive) | > 100 µM (inactive) | > 100 µM (inactive) | > 100 µM (inactive) | > 100 µM (inactive) | > 100 µM (inactive) | > 100 µM (inactive) | > 100 µM (inactive) | > 100 µM (inactive) | > 100 µM (inactive) | > 100 µM (inactive) | 3.42 µM (inactive) | > 100 µM (inactive) | 0.144 µM (active) | > 100 µM (inactive) | > 100 µM (inactive) | > 100 µM (inactive) | > 100 µM (inactive) |
| Oc1[nH]c(Nc2cccc(Br)c2)nc2ncnc1-2 | > 100 | > 100 µM (inactive) | 76.4 µM (inactive) | > 100 µM (inactive) | 26.5 µM (inactive) | > 100 µM (inactive) | > 100 µM (inactive) | 71.8 µM (inactive) | 89.5 µM (inactive) | > 100 µM (inactive) | > 100 µM (inactive) | – | > 100 µM (inactive) | > 100 µM (inactive) | – | 54.7 µM (inactive) | > 100 µM (inactive) | 52 µM (inactive) | > 100 µM (inactive) | 56.4 µM (inactive) |
